Results reported in US6620839B2, “1,3-disubstituted and 1,3,3-trisubstituted pyrrolidines as histamine-3 receptor ligands and their therapeutic applications” (Abbott Laboratories, priority 2000, dated 2003).

The molecules below were run against T1, histamine-3 receptor (Rattus norvegicus, UniProt Q9QYN8) (assay: Histamine-3 receptor binding, (3H)-N-α-methylhistamine displacement in rat cortical membranes). Conditions: male Sprague-Dawley rat brain cortical membranes; (3H)-N-α-methylhistamine ~0.6 nM; 30 minutes at 25° C.; Cheng-Prusoff.
T1 construct: from tissue; host or cells: male Sprague-Dawley rat brain cortex membranes
Method: Briefly, male Sprague-Dawley rat brain cortices were homogenized (1 g tissue/10 mL buffer) in 50 mM Tris-HCl/5 mM EDTA containing protease inhibitor cocktail (Calbiochem) using a polytron set at 20,500 rpm. Homogenates were centrifuged for 20 minutes at 40,000×g. The supernatant was decanted, and pellets were weighed. The pellet was resuspended by polytron homogenization in 40 mL 50 mM Tris-HCl/5 mM EDTA with protease inhibitors and centrifuged for 20 minutes at 40,000×g. […] Test compounds were dissolved in DMSO to provide 20 mM solution, serially diluted and then added to the incubation mixtures prior to initiating the incubation assay by addition of the membranes. Thioperamide (3 μM) was used to determine nonspecific binding. Binding incubations were conducted for 30 minutes at 25° C. and terminated by addition of 2 mL of ice cold 50 mM Tris-HCl (pH 7.7) and filtration through 0.3% polyethylenimine-soaked Unifilter plates (Packard). These filters were washed 4 additional times with 2 mL of ice-cold 50 mM Tris-HCl and dried for 1 hour. Radioactivity was determined using liquid scintillation counting techniques. Results were analyzed by Hill transformation and Ki values were determined using the Cheng-Prusoff equation.

T1 sequence (Q9QYN8 whole entry): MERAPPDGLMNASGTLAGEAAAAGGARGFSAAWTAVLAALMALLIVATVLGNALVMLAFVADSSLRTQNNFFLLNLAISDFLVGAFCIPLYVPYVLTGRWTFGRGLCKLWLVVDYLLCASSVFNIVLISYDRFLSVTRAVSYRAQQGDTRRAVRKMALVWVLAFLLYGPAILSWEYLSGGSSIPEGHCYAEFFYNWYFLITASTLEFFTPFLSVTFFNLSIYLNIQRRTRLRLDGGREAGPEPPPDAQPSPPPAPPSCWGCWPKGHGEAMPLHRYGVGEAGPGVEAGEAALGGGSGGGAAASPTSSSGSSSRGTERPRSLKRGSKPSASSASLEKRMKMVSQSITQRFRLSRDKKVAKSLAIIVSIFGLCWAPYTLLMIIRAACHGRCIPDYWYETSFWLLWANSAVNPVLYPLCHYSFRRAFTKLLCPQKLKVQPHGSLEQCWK

| Molecule | Ki |
| --- | --- |
| O=C(c1ccc(OCCCN2CC[C@@H](NS(=O)(=O)C=Cc3ccccc3)C2)cc1)C1CC1 [Example 88, N-((3R)-1-{3-[4-(cyclopropylcarbonyl)phenoxy]propyl}pyrrolidinyl)-2-phenylethenesulfonamide] | 6.8 nM |
| N-{(3R)-1-[3-(4-acetylphenoxy)propyl]pyrrolidinyl}-4-(trifluoromethoxy)benzenesulfonamide [Example 73] | 6.4 nM |
| O=C(c1ccc(OCCCN2CC[C@@H](NS(=O)(=O)c3ccc(OC(F)(F)F)cc3)C2)cc1)C1CC1 [Example 94, N-((3R)-1-{3-[4-(cyclopropylcarbonyl)phenoxy]propyl}pyrrolidinyl)-4-(trifluoromethoxy)benzenesulfonamide] | 4.9 nM |
| CN(C)C(=O)N(C)[C@@H]1CCN(CCCOc2ccc(-c3ccc(C#N)cc3)cc2)C1 [Example 115, N-((3R)-1-{3-[(4′-cyano[1,1′-biphenyl]-4-yl)oxy]propyl}pyrrolidinyl)-N,N,′N′-trimethylurea] | 21 nM |
| O=C(c1ccc(OCCCN2CC[C@@H](NS(=O)(=O)c3cccc(F)c3)C2)cc1)C1CC1 [Example 93, N-((3R)-1-{3-[4-(cyclopropylcarbonyl)phenoxy]propyl}pyrrolidinyl)-3-fluorobenzenesulfonamide] | 3.2 nM |
| Cc1ccc(S(=O)(=O)N[C@@H]2CCN(CCCOc3ccc(-c4ccc(C#N)cc4)cc3)C2)cc1 [Example 22] | 12 nM |
| Cn1cnc(S(=O)(=O)N[C@@H]2CCN(CCCOc3ccc(-c4ccc(C#N)cc4)cc3)C2)c1 [Example 35] | 13 nM |
| CC(=O)c1ccc(OCCCN2CC[C@@H](NS(=O)(=O)c3cccc4cnccc34)C2)cc1 [Example 75, N-{(3R)-1-[3-(4-acetylphenoxy)propyl]pyrrolidinyl}-5-isoquinolinesulfonamide] | 19 nM |
| Cc1c(S(=O)(=O)N[C@@H]2CCN(CCCOc3ccc(C(=O)C4CC4)cc3)C2)sc2ccc(Cl)cc12 [Example 82, 5-chloro-N-((3R)-1-{3-[4-(cyclopropylcarbonyl)phenoxy]propyl}pyrrolidinyl)-3-methyl-1-benzothiophene-2-sulfonamide] | 21 nM |
| O=C(c1ccc(OCCCN2CC[C@@H](NS(=O)(=O)c3ccc(Br)cc3)C2)cc1)C1CC1 [Example 56, 4-bromo-N-((3R)-1-{3-[4-(cyclopropylcarbonyl)phenoxy]propyl}pyrrolidinyl)benzenesulfonamide] | 4.7 nM |
| CN([C@@H]1CCN(CCCOc2ccc(-c3ccc(C#N)cc3)cc2)C1)S(=O)(=O)c1ccc(C#N)cc1 [Example 126, 4-cyano-N-((3R)-1-{3-[(4′-cyano[1,1′-biphenyl]-4-yl)oxy]propyl}pyrrolidinyl)-N-methylbenzenesulfonamide] | 4.6 nM |
| N#Cc1ccc(-c2ccc(OCCCN3CC[C@@H](NC(=O)c4csc(-c5cccnc5)n4)C3)cc2)cc1 [Example 143] | 85 nM |
| Cc1cc(OCCCN2CC[C@@H](N(C)C)C2)ccc1-c1ccc(C#N)cc1 [Example 170, 4′-{3-[(3R)-3-(dimethylamino)-1-pyrrolidinyl]propoxy}-2′-methyl-1,1′-biphenyl-4-carbonitrile] | 51 nM |
| Cc1ccccc1S(=O)(=O)N[C@@H]1CCN(CCCOc2ccc(C(=O)C3CC3)cc2)C1 [Example 64, N-((3R)-1-{3-[4-(cyclopropylcarbonyl)phenoxy]propyl}pyrrolidinyl)-2-methylbenzenesulfonamide] | 11 nM |
| CS(=O)(=O)c1ccc(S(=O)(=O)N[C@@H]2CCN(CCCOc3ccc(-c4ccc(C#N)cc4)cc3)C2)cc1 [Example 146] | 3 nM |
| Cc1cc(-c2ccc(C#N)cc2)ccc1OCCCN1CC[C@@H](N(C)C)C1 [Example 168, 4′-{3-[(3R)-3-(dimethylamino)-1-pyrrolidinyl]propoxy}-3′-methyl-1,1′-biphenyl-4-carbonitrile] | 74 nM |
| N#Cc1ccc(-c2ccc(OCCCN3CC[C@@H](NS(=O)(=O)c4ccccc4C#N)C3)cc2)cc1 [Example 46, 2-cyano-N-((3R)-1-{3-[(4′-cyano[1,1′-biphenyl]-4-yl)oxy]propyl}pyrrolidinyl)benzenesulfonamide] | 103 nM |
| COC(=O)N[C@@H]1CCN(CCCOc2ccc(-c3ccc(C#N)cc3)cc2)C1 [Example 133, methyl (3R)-1-{3-[(4′-cyano[1,1′-biphenyl]-4-yl)oxy]propyl}pyrrolidinylcarbamate] | 57 nM |
| N#Cc1ccc(-c2ccc(OCCCN3CC[C@@H](NS(=O)(=O)c4cc(C(F)(F)F)cc(C(F)(F)F)c4)C3)cc2)cc1 [Example 38] | 132 nM |
| N#Cc1ccc(-c2ccc(OCCCN3CC[C@@H](NC(=O)c4ccco4)C3)cc2)cc1 [Example 142] | 321 nM |
| CC(C)(C)c1ccc(S(=O)(=O)N[C@@H]2CCN(CCCOc3ccc(-c4ccc(C#N)cc4)cc3)C2)cc1 [Example 21, 4-tert-butyl-N-((3R)-1-{3-[(4′-cyano[1,1′-biphenyl]-4-yl)oxy]propyl}pyrrolidinyl)benzenesulfonamide] | 22 nM |

| Molecule | Ki |
| --- | --- |
| O=C(c1ccc(OCCCN2CC[C@@H](NS(=O)(=O)c3ccc(C(F)(F)F)cc3)C2)cc1)C1CC1 [Example 92, N-((3R)-1-{3-[4-(cyclopropylcarbonyl)phenoxy]propyl}pyrrolidinyl)-4-(trifluoromethyl)benzenesulfonamide] | 4.9 nM |
| CC(=O)c1ccc(OCCCN2CC[C@@H](NS(=O)(=O)c3ccc(Cl)c(Cl)c3)C2)cc1 [Example 77, N-{(3R)-1-[3-(4-acetylphenoxy)propyl]pyrrolidinyl}-3,4-dichlorobenzenesulfonamide] | 5.3 nM |
| CC(=O)c1ccc(OCCCN2CC[C@@H](N3C(=O)N[C@@H](C)C3=O)C2)cc1 [Example 9, (5S)-3-{(3R)-1-[3-(4-acetylphenoxy)propyl]pyrrolidinyl}-5-methyl-2,4-imidazolidinedione] | 675 nM |
| CN(C(=O)N1CCCC1)[C@@H]1CCN(CCCOc2ccc(-c3ccc(C#N)cc3)cc2)C1 [Example 116] | 14 nM |
| Cc1cc(-c2ccc(OCCCN3CC[C@@H](N(C)C)C3)cc2)ccc1C#N [Example 164, 4′-{3-[(3R)-3-(dimethylamino)-1-pyrrolidinyl]propoxy}-3-methyl-1,1′-biphenyl-4-carbonitrile] | 48 nM |
| CC(C)S(=O)(=O)N[C@@H]1CCN(CCCOc2ccc(-c3ccc(C#N)cc3)cc2)C1 [Example 144] | 21 nM |
| CC(=O)Nc1ccc(S(=O)(=O)N[C@@H]2CCN(CCCOc3ccc(-c4ccccn4)cc3)C2)cc1Cl [Example 107] | 200 nM |
| CN(C)[C@@H]1CCN(CCCOc2ccc(-c3ccc(C#N)cc3)cc2F)C1 [Example 167, 4′-{3-[(3R)-3-(dimethylamino)-1-pyrrolidinyl]propoxy}-3′-fluoro-1,1′-biphenyl-4-carbonitrile] | 9 nM |
| N#Cc1ccc(-c2ccc(OCCCN3CC[C@@H](NS(=O)(=O)c4ccccc4F)C3)cc2)cc1 [Example 29] | 5.9 nM |
| N#Cc1cccc(S(=O)(=O)N[C@@H]2CCN(CCCOc3ccc(C(=O)C4CC4)cc3)C2)c1 [Example 71, 3-cyano-N-((3R)-1-{3-[4-(cyclopropylcarbonyl)phenoxy]propyl}pyrrolidinyl)benzenesulfonamide] | 2.8 nM |
| CC(=O)c1ccc(OCCCN2CC[C@@H](NS(=O)(=O)c3ccc(C#N)cc3)C2)cc1 [Example 5, N-{(3R)-1-[3-(4-acetylphenoxy)propyl]pyrrolidinyl}-4-cyanobenzenesulfonamide] | 6.3 nM |
| CC(=O)Nc1ccc(S(=O)(=O)N[C@@H]2CCN(CCCOc3ccc(C(C)=O)cc3)C2)cc1Cl [Example 76, N-{4-[({(3R)-1-[3-(4-acetylphenoxy)propyl]pyrrolidinyl}amino)sulfonyl]-2-chlorophenyl}acetamide] | 4.9 nM |
| CN(C)[C@@H]1CCN(CCCOc2c(F)cc(-c3ccc(C#N)cc3)cc2F)C1 [Example 172, 4′-{3-[(3R)-3-(dimethylamino)-1-pyrrolidinyl]propoxy}-3′,5′-difluoro-1,1′-biphenyl-4-carbonitrile] | 13 nM |
| CC(=O)c1ccc(OCCCN2CC[C@@H](NS(=O)(=O)c3ccc(F)cc3F)C2)cc1 [Example 74, N-{(3R)-1-[3-(4-acetylphenoxy)propyl]pyrrolidinyl}-2,4-difluorobenzenesulfonamide] | 5.6 nM |
| N#Cc1ccc(-c2ccc(OCCCN3CC[C@@H](NC(=O)c4cccnc4)C3)cc2)cc1 [Example 141] | 342 nM |
| 1-(4-{3-[(3R)-3-aminopyrrolidinyl]propoxy}phenyl)-1-propanone [Example 7] | 31 nM |
| N#Cc1ccc(-c2ccc(OCCCN3CC[C@@H](NC(=O)c4ccc(F)cc4)C3)cc2)cc1 [Example 139] | 288 nM |
| CN(C(=O)OC(C)(C)C)[C@@H]1CCN(CCCOc2ccc(-c3ccc(C#N)cc3)cc2)C1 [Example 109, tert-butyl (3R)-1-{3-[(4′-cyano[1,1′-biphenyl]-4-yl)oxy]propyl}pyrrolidinyl(methyl)carbamate] | 26 nM |
| COc1ccc(S(=O)(=O)N[C@@H]2CCN(CCCOc3ccc(-c4ccc(C#N)cc4)cc3)C2)cc1OC [Example 42] | 8.8 nM |
| COc1ccc(S(=O)(=O)N[C@@H]2CCN(CCCOc3ccc(-c4ccc(C#N)cc4)cc3)C2)cc1 [Example 20] | 12 nM |
| O=C(c1ccc(OCCCN2CC[C@@H](NS(=O)(=O)c3ccc(F)cc3)C2)cc1)C1CC1 [Example 57, N-((3R)-1-{3-[4-(cyclopropylcarbonyl)phenoxy]propyl}pyrrolidinyl)-4-fluorobenzenesulfonamide] | 3.6 nM |
